# Test system: P-388 mouse leukemia cells
# Assay: P388 mouse leukemia cell cytotoxicity assay (24-well plate screening / tube assay)
# Format: cell-based
# Conditions: for concentration inhibiting cell growth relative to the concentration required for inhibition by chondrillin (composition 1): 50% inhibition stated for II/2 and III/3, P388 mouse leukemia cells; for IC50: P388, P-388 mouse leukemia cells, 48 hours incubation, 5% CO2, read-out: P388 IC50, Inhibiting concentration 50% of cell growth; for cytotoxic in vitro against P-388 murine leukemia cells: result in words; for antitumor activity ranking among the compositions tested: Table 2, P388, result in words
# Text: The following assay method was utilized to illustrate the antitumor effectiveness of the compositions of Formulae II - VI corresponding to compositions 2-5 of the examples. Data is also provided for the chondrillin composition (1) which has also been isolated according to the process of the invention.
# 388 MOUSE LEUKEMIA CELL CYTOXICITY ASSAY 24-WELL PLATE SCREENING ASSAY AND TUBE ASSAY PROTOCOL
# Media--Dulbeccos with glucose and pyruvate (Biologos, Inc) with 10% horse serum, (Biologos, Inc) and 1.0 ug/ml gentamicin (Gibco).
# Cells - P-388 mouse leukemia cells (American Type Culture Collection) in media at a concentration of 5×10^4 W cells/ml Sterile 24-well culture plates (Nunc) for screening or 12×75 mm glass culture tubes (Becton-Dickinson) for tube assay. Microdispenser with 1 to 5 ul increments (Drummond Scientific Co. Broomall PA).
# Finnpipette with 5 to 50 μl increments and Finnpipette with 50 to 200 μl increments.
# 1. A sample of the composition to be assayed is added to each well or tube in an amount of from 200 ug/ml and 100 ug/ml for screening. For DDC of known active compounds use log concentrations from 100 ug/ml to 0.01 ug/ml for range-finding assay; when range has been determined, use five concentrations between highest and lowest active concentrations.
# 2. Add 2.0 ml of 5×10^4 cell suspension in media to each well or tube. Tubes are loosely covered with parafilm.
# 3 Incubate in 5% CO2 incubator 48 hours.
# 4. Visually read plates with inverted microscope, comparing with solvent control. Assign activity as follows:
# Repeat all positive samples using tube assay.
# 5. For Tube assays--Mix tube well on vortex and remove 0.5 ml aliquot and add to 9.5 ml of diluent fluid (Isoton - Coulter) in Accuvette (Coulter) and mix well by inversion immediately before counting, taking care not to produce excessive bubbles. Count on Coulter Counter (Counter is set to count 0.5 ml of the solution; therefore counts may be converted to cell/ml in original assay tube by multiplying count by 40.
# Positive control--Vinblastine or Vincristine in aqueous solution.
# Always run a solvent control in duplicate in the last two wells of each plate or four tubes for each rack of 72 or less tubes. Also run four wells or tubes with media and cells only per run of plates or tubes. When using volumes of aqueous solutions greater than 200 μl, dry sample and bring up to desired concentration in media.
# Compositions 1-5 of formulae I/1; II/2; III/3; IV/4; and V/5 are cytotoxic in vitro against P-388 murine leukemia cells.
Compound,concentration inhibiting cell growth relative to the concentration required for inhibition by chondrillin (composition 1) [%],IC50 [µg/mL],cytotoxic in vitro against P-388 murine leukemia cells,antitumor activity ranking among the compositions tested
CC=CC=CCCCCCCCCC[C@]1(OC)C=C[C@@H](CC(=O)OC)OO1 (relative stereo) [Composition IV/4],2,0.1,cytotoxic,–
CC=CC=CCCCCCCC[C@]1(OC)C=C[C@@H](CC(=O)OC)OO1 (relative stereo) [Composition II/2],1,0.05,cytotoxic,greatest antitumor activity of the compositions tested
CC=CCCCCCCCCC[C@]1(OC)C=C[C@@H](CC(=O)OC)OO1 (relative stereo) [Composition V/5],2,0.1,cytotoxic,–
CCCCCCCCCCCC[C@]1(OC)C=C[C@@H](CC(=O)OC)OO1 (relative stereo) [Composition III/3],1,0.05,cytotoxic,greatest antitumor activity of the compositions tested
"CCCCCCCCCCCCCCCCC1(OC)C=CC(CC(=O)OC)OO1 (stereo not shown) [Composition I/1, chondrillin, reference compound]",–,5,cytotoxic,–

# From patent US4731377A, “Antitumor cyclic peroxides” (Harbor Branch Oceanographic Institute, Inc., priority 1986, dated 1988)
